“And” between values parts separate entries of the source, which are not always exact repeats. Equal values may be shown once. Inconclusive results and toxic doses are left out.
System: P388 leukemia ip, CD2F1 mice, survival T/C
Test: NCI In Vivo Anticancer Drug Screen. Data for tumor model P388 Leukemia (intraperitoneal) in CD2F1 (CDF1) mice
Conditions: endpoint: median survival time, higher = longer survival
Summary of the method: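 Mice carrying the transplanted tumor received test compound or vehicle. Survival was recorded in each group, and the value is the treated-group measurement divided by that of the vehicle-treated control group.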

`Nc1n[n+](-c2ccccc2)no1` was tested. Which T/C (dose: 1.56 mg/kg/injection, schedule: Q01DX009 (ip), vehicle: water) did it give?
The T/C was 110 % of control.

And the T/C (dose: 1.56 mg/kg/injection, schedule: Q03HX015 (ip), vehicle: water)?
The T/C was 117 % of control.

What about the T/C (dose: 3.12 mg/kg/injection, schedule: Q01DX005 (ip), vehicle: water) of the same molecule?
The T/C was 104 % of control.

And the T/C (dose: 3.12 mg/kg/injection, schedule: Q03HX015 (ip), vehicle: water)?
Its T/C is 119 % of control.

And the T/C (dose: 3.13 mg/kg/injection, schedule: Q01DX009 (ip), vehicle: water)?
Its T/C is 104 % of control and 108 % of control and 117 % of control.

And the T/C (dose: 3.13 mg/kg/injection, schedule: Q03HX015 (ip), vehicle: water)?
The T/C was 115 % of control.

What about the T/C (dose: 6.25 mg/kg/injection, schedule: Q01DX009 (ip), vehicle: saline) of the same molecule?
Its T/C is 123 % of control.

And the T/C (dose: 6.25 mg/kg/injection, schedule: Q01DX009 (ip), vehicle: water)?
Its T/C is 117 % of control and 118 % of control.

What about the T/C (dose: 6.25 mg/kg/injection, schedule: Q03HX003 (ip), vehicle: water) of the same molecule?
Its T/C is 112 % of control.

What about the T/C (dose: 12.5 mg/kg/injection, schedule: Q03HX003 (ip), vehicle: water) of the same molecule?
Its T/C is 117 % of control.

What about the T/C (dose: 25.0 mg/kg/injection, schedule: Q01DX001 (ip), vehicle: water) of the same molecule?
The T/C was 104 % of control.

What about the T/C (dose: 25.0 mg/kg/injection, schedule: Q01DX009 (ip), vehicle: saline) of the same molecule?
Its T/C is 178 % of control.

What about the T/C (dose: 25.0 mg/kg/injection, schedule: Q01DX009 (ip), vehicle: water) of the same molecule?
The T/C was 169 % of control and 189 % of control and 195 % of control.

What about the T/C (dose: 25.0 mg/kg/injection, schedule: Q03HX003 (ip), vehicle: water) of the same molecule?
The T/C was 117 % of control.

What about the T/C (dose: 25.0 mg/kg/injection, schedule: Q03HX015 (ip), vehicle: water) of the same molecule?
The T/C was 161 % of control and 183 % of control.

And the T/C (dose: 50.0 mg/kg/injection, schedule: Q01DX001 (ip), vehicle: water)?
The T/C was 120 % of control.

What about the T/C (dose: 50.0 mg/kg/injection, schedule: Q01DX009 (ip), vehicle: saline) of the same molecule?
Its T/C is 214 % of control.

And the T/C (dose: 50.0 mg/kg/injection, schedule: Q03HX003 (ip), vehicle: water)?
The T/C was 123 % of control.

And the T/C (dose: 100.0 mg/kg/injection, schedule: Q01DX001 (ip), vehicle: water)?
The T/C was 114 % of control.

With `C=C1CCOC1=O` as the molecule, how does the T/C (dose: 50.0 mg/kg/injection, schedule: Q04DX002 (ip), vehicle: saline with Tween-80) read?
Its T/C is 97 % of control.

What about the T/C (dose: 100.0 mg/kg/injection, schedule: Q04DX002 (ip), vehicle: saline with Tween-80) of the same molecule?
Its T/C is 105 % of control.

What about the T/C (dose: 200.0 mg/kg/injection, schedule: Q04DX002 (ip), vehicle: saline with Tween-80) of the same molecule?
Its T/C is 105 % of control.

With `C=C[C@@H]1C[C@@]2(C)O[C@@H]([C@@H](OCc3ccccc3)[C@@H]1OC)[C@@H](C)O2` as the molecule, how does the T/C (dose: 100.0 mg/kg/injection, schedule: Q01DX001 (ip), vehicle: saline with Tween-80) read?
Its T/C is 96 % of control.

What about the T/C (dose: 200.0 mg/kg/injection, schedule: Q01DX001 (ip), vehicle: saline with Tween-80) of the same molecule?
The T/C was 104 % of control.

What about the T/C (dose: 400.0 mg/kg/injection, schedule: Q01DX001 (ip), vehicle: saline with Tween-80) of the same molecule?
Its T/C is 104 % of control.

Which results are given for `Cc1ccccc1C1OC(N)=C(O)C1=O` (stereo not drawn)?
T/C (dose: 60.0 mg/kg/injection, schedule: Q01DX005 (ip), vehicle: Klucel (hydroxypropylcellulose) (HPC)): 93 % of control; T/C (dose: 120.0 mg/kg/injection, schedule: Q01DX005 (ip), vehicle: Klucel (hydroxypropylcellulose) (HPC)): 93 % of control; T/C (dose: 240.0 mg/kg/injection, schedule: Q01DX005 (ip), vehicle: Klucel (hydroxypropylcellulose) (HPC)): 90 % of control

For `O=C(/C=C/c1ccc(OCc2ccccc2)cc1)c1ccc([N+](=O)[O-])cc1`, which T/C (dose: 50.0 mg/kg/injection, schedule: Q01DX009 (ip), vehicle: saline with Tween-80) is on record?
Its T/C is 99 % of control.

And the T/C (dose: 100.0 mg/kg/injection, schedule: Q01DX009 (ip), vehicle: saline with Tween-80)?
The T/C was 104 % of control.

And the T/C (dose: 200.0 mg/kg/injection, schedule: Q01DX009 (ip), vehicle: saline with Tween-80)?
Its T/C is 102 % of control.

For `CNC(=O)OC1/C(C)=C\C(C)C(O)C(OC)CC(C)CC2=C(OC)C(=O)C=C(C2=O)N(C)C(=O)/C(C)=C/C=C\C1OC` (stereo not drawn), which T/C (dose: 3.12 mg/kg/injection, schedule: Q01DX009 (ip), vehicle: DMSO) is on record?
The T/C was 110 % of control and 98 % of control.

And the T/C (dose: 6.25 mg/kg/injection, schedule: Q01DX009 (ip), vehicle: DMSO)?
Its T/C is 99 % of control and 109 % of control and 110 % of control.

What about the T/C (dose: 12.5 mg/kg/injection, schedule: Q01DX009 (ip), vehicle: DMSO) of the same molecule?
The T/C was 104 % of control and 122 % of control and 123 % of control.

What about the T/C (dose: 25.0 mg/kg/injection, schedule: Q01DX009 (ip), vehicle: DMSO) of the same molecule?
Its T/C is 109 % of control and 115 % of control and 122 % of control.

`O=C1C=C(N2CCOCC2)C(=O)C=C1N1CCOCC1` was tested. Which T/C (dose: 50.0 mg/kg/injection, schedule: Q01DX005 (ip), vehicle: Klucel (hydroxypropylcellulose) (HPC)) did it give?
The T/C was 90 % of control.

What about the T/C (dose: 100.0 mg/kg/injection, schedule: Q01DX005 (ip), vehicle: Klucel (hydroxypropylcellulose) (HPC)) of the same molecule?
Its T/C is 98 % of control.

And the T/C (dose: 200.0 mg/kg/injection, schedule: Q01DX005 (ip), vehicle: Klucel (hydroxypropylcellulose) (HPC))?
Its T/C is 92 % of control.

— PubChem BioAssay AID330 (DTP/NCI, 2004)
